In patent US11072616B2, “Cyclic peptides targeting alpha-4-beta-7 integrin” (Zealand Pharma A/S, priority 2015, dated 2021):

Legend:
[1] = not given; remark: listed apart in the source
[2] = Plasma protein binding, equilibrium dialysis, rat plasma; conditions: for % recovery: rat plasma dialysis; for fraction unbound at 5 h, 1 microM: 50% plasma
Procedure: (§3) An equilibrium dialysis (HTDialysis) method was used employing 50% plasma collected from CD-1 mice or Sprague-Dawley rats and incubated with K2EDTA. Test articles were assessed at 1 microM concentration in three replicates. Incubation time as 5 hours and plasma and buffer standards were assessed using LC/MS/MS. Percentage recovery was calculated as (Cbuffer+Cplasma)/[average]Cinitial, [average]Cinitial being measured in triplicate from the test samples prior to dialysis. Percentage of compound unbound was calculated as Cbuffer/Cplasma.

[3] = Plasma protein binding, equilibrium dialysis, mouse plasma; conditions: for % recovery: mouse plasma dialysis; for fraction unbound at 5 h, 1 microM: 50% plasma
Procedure: as §3

CYP1A2 = molecular target: T1, CYP1A2 (Homo sapiens, UniProt P05177); test: in vitro; conditions: microsomes
T1 sequence (P05177 1-516): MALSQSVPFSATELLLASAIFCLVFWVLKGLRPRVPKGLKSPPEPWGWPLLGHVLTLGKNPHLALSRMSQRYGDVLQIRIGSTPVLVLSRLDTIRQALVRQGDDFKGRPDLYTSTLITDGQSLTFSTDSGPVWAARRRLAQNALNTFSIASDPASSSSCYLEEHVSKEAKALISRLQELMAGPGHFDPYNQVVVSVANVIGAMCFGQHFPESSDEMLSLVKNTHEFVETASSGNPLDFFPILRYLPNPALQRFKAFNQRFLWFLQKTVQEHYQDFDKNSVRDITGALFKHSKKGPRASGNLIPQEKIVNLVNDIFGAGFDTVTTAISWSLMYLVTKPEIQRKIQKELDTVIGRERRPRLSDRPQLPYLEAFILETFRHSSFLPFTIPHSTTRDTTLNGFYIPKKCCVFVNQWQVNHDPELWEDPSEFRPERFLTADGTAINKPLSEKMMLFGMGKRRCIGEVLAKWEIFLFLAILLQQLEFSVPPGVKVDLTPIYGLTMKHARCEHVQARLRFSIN
Procedure: (§1) Cytochrome P450 Inhibition Assay
(§2) Analyses were performed using standard LC/MS/MS protocols.

CYP2C9 = CYP2C9 (Homo sapiens, UniProt P11712); test: in vitro; conditions: microsomes
Chain of CYP2C9 (P11712 whole entry): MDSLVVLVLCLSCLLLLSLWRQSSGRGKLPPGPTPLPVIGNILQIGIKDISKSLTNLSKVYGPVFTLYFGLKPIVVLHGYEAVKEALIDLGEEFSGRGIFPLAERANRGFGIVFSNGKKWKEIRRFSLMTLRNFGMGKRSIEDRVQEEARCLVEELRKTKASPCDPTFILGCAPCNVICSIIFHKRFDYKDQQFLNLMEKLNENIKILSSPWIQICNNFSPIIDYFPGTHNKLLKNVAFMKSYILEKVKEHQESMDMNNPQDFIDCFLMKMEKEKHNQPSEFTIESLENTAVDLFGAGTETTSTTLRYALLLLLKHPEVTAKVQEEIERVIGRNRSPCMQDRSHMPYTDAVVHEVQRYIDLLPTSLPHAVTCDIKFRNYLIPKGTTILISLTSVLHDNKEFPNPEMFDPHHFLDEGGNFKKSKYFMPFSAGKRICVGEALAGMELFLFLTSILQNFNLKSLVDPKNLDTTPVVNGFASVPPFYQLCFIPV
Procedure: as §1, §2

CYP2D6 = CYP2D6 (Homo sapiens, UniProt P10635); test: in vitro; conditions: microsomes
Chain of CYP2D6 (P10635 whole entry): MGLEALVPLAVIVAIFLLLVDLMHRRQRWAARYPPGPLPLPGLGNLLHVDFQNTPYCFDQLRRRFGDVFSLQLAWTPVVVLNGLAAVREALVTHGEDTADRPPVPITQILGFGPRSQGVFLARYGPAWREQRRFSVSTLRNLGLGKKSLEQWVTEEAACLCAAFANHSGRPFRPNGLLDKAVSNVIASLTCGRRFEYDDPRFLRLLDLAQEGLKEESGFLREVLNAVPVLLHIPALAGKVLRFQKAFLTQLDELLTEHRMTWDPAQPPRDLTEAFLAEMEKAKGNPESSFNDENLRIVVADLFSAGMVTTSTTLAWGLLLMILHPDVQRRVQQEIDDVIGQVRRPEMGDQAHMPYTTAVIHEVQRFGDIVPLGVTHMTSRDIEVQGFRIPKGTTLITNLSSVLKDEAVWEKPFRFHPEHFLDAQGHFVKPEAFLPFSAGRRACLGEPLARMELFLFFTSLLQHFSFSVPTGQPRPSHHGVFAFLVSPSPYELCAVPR
Procedure: as §1, §2

CYP3A4 = CYP3A4 (Homo sapiens, UniProt P08684); test: in vitro; conditions: microsomes
Chain of CYP3A4 (P08684 whole entry): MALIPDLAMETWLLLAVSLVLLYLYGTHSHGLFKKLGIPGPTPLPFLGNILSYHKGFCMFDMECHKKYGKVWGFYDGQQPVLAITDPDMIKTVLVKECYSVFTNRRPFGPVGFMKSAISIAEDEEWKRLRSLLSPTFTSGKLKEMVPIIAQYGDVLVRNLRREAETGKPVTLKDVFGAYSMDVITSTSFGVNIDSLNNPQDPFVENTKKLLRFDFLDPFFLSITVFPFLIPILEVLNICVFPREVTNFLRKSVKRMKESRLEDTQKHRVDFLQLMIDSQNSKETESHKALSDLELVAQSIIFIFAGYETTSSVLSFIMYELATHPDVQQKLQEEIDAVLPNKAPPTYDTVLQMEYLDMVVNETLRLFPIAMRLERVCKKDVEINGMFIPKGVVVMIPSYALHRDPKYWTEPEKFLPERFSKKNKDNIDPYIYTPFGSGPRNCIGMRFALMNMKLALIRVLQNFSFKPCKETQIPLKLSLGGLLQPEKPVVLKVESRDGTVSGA
Procedure: as §1, §2

[4] = system: integrin alpha-4-beta-7-expressing T lymphocytes; test: In vivo T lymphocyte trafficking analyses in DSS-treated mice (single dose); set-up: species or system C57Bl/6 mice; conditions: 5-6 h
Procedure: In Vivo T Lymphocyte Trafficking Analyses
Animals. Female C57131/6 mice (Charles River, St-Constant, Qc), weighting 16-19 g at delivery were used for this study. Following arrival in the animal facility, all animals were subjected to a general health evaluation. An acclimation period of 7-14 days was allowed before the beginning of the study.
Administration of DSS. Dextran sulfate sodium (DSS) was administered to C57Bl/6 mice through addition to their drinking water at 2-3%. Mice accessed the DSS-treated water ad libitum over a 5-day period. Body weight and disease activity index (“DAI”) were measured on Day 5 in order to distribute DSS-treated animals in two uniform groups prior to dosing. Specific symptoms associated with colitis were scored based on the severity of each particular symptoms: 1—blood in stool (negative hemoccult, positive hemoccult, blood traces in stool visible, rectal bleeding); 2—stool consistency (normal, soft but still formed, very soft, diarrhea); 3—posture and fur (normal; ruffled fur; ruffled fur combined to slight hunched posture and slight dehydration; ruffled fur combined to hunched posture, dehydration and altered walking; moribund (euthanasia is mandatory before the animal reach this point). The overall DAI score was the sum of the three parameters (maximum score of 9). DAI assessment was performed on Day 5 only (prior to dosing). […]

[5] = in vivo
Procedure: In Vivo Pharmacokinetic Assessments in Rodents
Oral bioavailability of test compounds was conducted by assessing plasma exposure of following one or two oral doses in mice and, in some cases, comparing said plasma exposure with that following a single intravenous dose of the same compound.
Body weights were recorded on the day of dosing.
Dosing: The formulation containing the test compound were administered p.o. by gavage with disposable feeding needles.
Sample processing/storage: All blood samples were transferred into K2EDTA tubes on wet ice and centrifuged within 5 min (3200×g for 5 min at 4° C.) to obtain plasma. Samples were stored frozen at −80° C. until bioanalysis.
Instrumentation: AB Sciex API 4000 Q-TRAP MS/MS system equipped with an Agilent LC system with a binary pump, a solvent degasser, a thermostatted column compartment, a CTC autosampler and a divert valve installed between the column and mass spectrometer inlet.

[6] = Sprague-Dawley, rat, % unbound (Cbuffer/Cplasma) Rat plasma 1, replicate 1, 1 microM, 5 h
[7] = Sprague-Dawley, rat, % unbound (Cbuffer/Cplasma) Rat plasma 2, replicate 2, 1 microM, 5 h
[8] = Sprague-Dawley, rat, % unbound (Cbuffer/Cplasma) Rat plasma 3, replicate 3, 1 microM, 5 h
[9] = Sprague-Dawley, rat, % unbound (Cbuffer/Cplasma) Rat plasma Average, average of 3 replicates
[10] = CD-1, mouse, % unbound (Cbuffer/Cplasma) Mouse plasma 1, replicate 1, 1 microM, 5 h
[11] = CD-1, mouse, % unbound (Cbuffer/Cplasma) Mouse plasma 2, replicate 2, 1 microM, 5 h
[12] = CD-1, mouse, % unbound (Cbuffer/Cplasma) Mouse plasma 3, replicate 3, 1 microM, 5 h
[13] = CD-1, mouse, % unbound (Cbuffer/Cplasma) Mouse plasma Average, average of 3 replicates

Q: For `CC[C@H](C)[C@@H]1NC(=O)[C@H](CC(=O)O)NC(=O)[C@H](CC(C)C)NC(=O)[C@H](Cc2ccc3ccccc3c2)NC(=O)[C@@H]2CCCN2[C@H](C(=O)NC(C)(C)C)[C@H](C)NC1=O` [ET01827], which “% unbound (Cbuffer/Cplasma) Mouse plasma 3” value is on record?
A: 9.3%

Q: What about the “% unbound (Cbuffer/Cplasma) Mouse plasma Average” value of the same compound?
A: 9.5%

Q: And the “% unbound (Cbuffer/Cplasma) Rat plasma 1” value [1]?
A: 16.2%

Q: What about the “% unbound (Cbuffer/Cplasma) Rat plasma 2” value [1] of the same compound?
A: 17.4%

Q: And the “% unbound (Cbuffer/Cplasma) Rat plasma Average” value [1]?
A: 15.7%

Q: And the “% recovery” value [2]?
A: 143%

Q: What about the “Control buffer/Buffer at 0.1 uM Cdonor/Creceiver” value (shortened to “Control buffer/Buffer”) [3] of the same compound?
A: 86%

Q: What about the “% recovery” value [3] of the same compound?
A: 103%

Q: Which results are given for `CC(C)C[C@@H]1NC(=O)[C@H](Cc2ccccc2)NC(=O)[C@@H]2CCCN2[C@H](C(=O)NC(C)(C)C)[C@H](C)NC(=O)[C@H]([C@@H](C)O)NC(=O)[C@H](CC(=O)O)NC1=O` [ET01792]?
A: IC50 (CYP1A2): > 15 µM; IC50 (CYP2C9): > 15 µM; IC50 (CYP2D6): > 15 µM; IC50 (CYP3A4): > 15 µM; homing of T lymphocytes to the MLN ([4]; 100 mg/kg single oral dose): significant reduction of homing to the MLN; % unbound (Cbuffer/Cplasma) Mouse plasma 1: 64.8%; % unbound (Cbuffer/Cplasma) Mouse plasma 2: 52.9%; % unbound (Cbuffer/Cplasma) Mouse plasma 3: 67.9%; % unbound (Cbuffer/Cplasma) Mouse plasma Average: 61.9%; % unbound (Cbuffer/Cplasma) Rat plasma 1 [1]: 82.9%; % unbound (Cbuffer/Cplasma) Rat plasma 2 [1]: 77.3%; % unbound (Cbuffer/Cplasma) Rat plasma 3 [1]: 79.5%; % unbound (Cbuffer/Cplasma) Rat plasma Average [1]: 79.9%; oral bioavailability / absorption (in words) ([5]; mouse, po): high oral bioavailability; exposure (AUC0-tlast) ([5]; mouse, po, 40 mg/kg): 589 ng·h/mL; maximum plasma concentration after the first dose ([5]; mouse, po, 48 mg/kg): ~1,600 ng/ml; % recovery [2]: 97%; Control buffer/Buffer at 0.1 uM Cdonor/Creceiver [3]: 80%; % recovery [3]: 130%

Q: Which IC50 (CYP2C9; human) does the source give for `Clc1ccc(COC(Cn2ccnc2)c2ccc(Cl)cc2Cl)c(Cl)c1` (stereo not drawn) [Miconazole, reference compound] here?
A: 0.32 µM

Q: With `CC(C)C[C@H]1C(=O)N[C@@H](C(C)C)C(=O)N[C@@H](Cc2ccccc2)C(=O)N[C@@H](C)[C@@H](C(=O)NC(C)(C)C)N2CCC[C@H]2C(=O)N[C@@H]([C@@H](C)O)C(=O)N1C` [ET00328-01] as the compound, how does the IC50 (CYP1A2; human) read?
A: > 15 µM

Q: And the IC50 (CYP2C9; human)?
A: > 15 µM

Q: What about the IC50 (CYP2D6; human) of the same compound?
A: > 15 µM

Q: And the IC50 (CYP3A4; human)?
A: 9.7 µM

Q: For `CC(C)C[C@@H]1NC(=O)[C@H](Cc2c[nH]c3ccccc23)NC(=O)[C@@H]2CCCN2[C@H](C(=O)NC(C)(C)C)[C@H](C)NC(=O)[C@H]([C@@H](C)O)NC(=O)[C@H](CC(=O)O)NC1=O` [ET00762], which IC50 (CYP1A2; human) is on record?
A: > 15 µM

Q: And the IC50 (CYP2C9; human)?
A: > 15 µM

Q: And the IC50 (CYP2D6; human)?
A: > 15 µM

Q: And the IC50 (CYP3A4; human)?
A: > 15 µM

Q: And the recovery at 5 hours, 1 microM ([2]; Sprague-Dawley, rat)?
A: 94%

Q: What about the fraction unbound at 5 h, 1 microM [2, 6] of the same compound?
A: 0.833

Q: And the fraction unbound at 5 h, 1 microM [2, 7]?
A: 0.761

Q: What about the fraction unbound at 5 h, 1 microM [2, 8] of the same compound?
A: 0.702

Q: And the fraction unbound at 5 h, 1 microM [2, 9]?
A: 0.765

Q: What about the recovery at 5 hours, 1 microM ([3]; CD-1, mouse) of the same compound?
A: 150%

Q: And the fraction unbound at 5 h, 1 microM [3, 10]?
A: 0.806

Q: And the fraction unbound at 5 h, 1 microM [3, 11]?
A: 0.744

Q: And the fraction unbound at 5 h, 1 microM [3, 12]?
A: 0.757

Q: And the fraction unbound at 5 h, 1 microM [3, 13]?
A: 0.769

Q: And the “Control buffer/Buffer” value [3]?
A: 79%

Q: And the recovery at 5 hours, 0.1 uM ([3]; buffer/buffer equilibrium dialysis control (HTDialysis))?
A: 99%

Q: With `CC[C@H](C)[C@@H]1NC(=O)[C@H](CCO)NC(=O)[C@H](CC(C)C)NC(=O)[C@H](Cc2ccc3ccccc3c2)NC(=O)[C@@H]2CCCN2[C@H](C(=O)NC(C)(C)C)[C@H](C)NC1=O` [ET01842-01] as the compound, how does the IC50 (CYP1A2; human) read?
A: > 15 µM

Q: And the IC50 (CYP2C9; human)?
A: > 15 µM

Q: What about the IC50 (CYP2D6; human) of the same compound?
A: > 15 µM

Q: What about the IC50 (CYP3A4; human) of the same compound?
A: 0.89 µM

Q: For `CC(C)C[C@@H]1NC(=O)CN(C)C(=O)[C@H](Cc2ccc(O)cc2)NC(=O)[C@@H]2CCCN2[C@H](C(=O)NC(C)(C)C)[C@H](C)NC(=O)[C@H]([C@@H](C)O)NC(=O)[C@H](CC(=O)O)NC1=O` [ET2154], which “homing of T lymphocytes to the MLN” value ([4]; 200 mg/kg single oral dose) is on record?
A: significant and robust attenuation of homing to the MLN

Q: What about the “oral bioavailability / absorption (in words)” value ([5]; mouse, po) of the same compound?
A: low oral bioavailability

Q: What does the source list for `CC(C)NCC(O)COc1cccc2ccccc12` (stereo not drawn) [Propranolol, reference compound]?
A: recovery at 5 h, 1 microM ([2]; Sprague-Dawley, rat, 50% plasma (K2EDTA)): 79%; fraction unbound at 5 h, 1 microM [2, 6]: 0.146; fraction unbound at 5 h, 1 microM [2, 7]: 0.147; fraction unbound at 5 h, 1 microM [2, 8]: 0.147; fraction unbound at 5 h, 1 microM [2, 9]: 0.147; fraction unbound at 5 h, 1 microM ([2]; Sprague-Dawley, rat, free fraction (% unbound), rat plasma): ~0.15; recovery at 5 h, 1 microM ([3]; CD-1, mouse, 50% plasma (K2EDTA)): 93%; fraction unbound at 5 h, 1 microM [3, 10]: 0.229; fraction unbound at 5 h, 1 microM [3, 11]: 0.201; fraction unbound at 5 h, 1 microM [3, 12]: 0.201; fraction unbound at 5 h, 1 microM [3, 13]: 0.21; fraction unbound at 5 h, 1 microM ([3]; CD-1, mouse, free fraction (% unbound), mouse plasma): ~0.21

Q: For `CC(C)C[C@@H]1NC(=O)[C@H](Cc2ccc(-c3ccccc3)cc2)NC(=O)[C@@H]2CCCN2[C@H](C(=O)NC(C)(C)C)[C@H](C)NC(=O)[C@H]([C@@H](C)O)NC(=O)[C@H](CC(=O)O)NC1=O` [ET01813], which IC50 (CYP1A2) is on record?
A: > 15 µM

Q: And the IC50 (CYP2C9)?
A: > 15 µM

Q: And the IC50 (CYP2D6)?
A: > 15 µM

Q: What about the IC50 (CYP3A4) of the same compound?
A: > 15 µM

Q: And the “% unbound (Cbuffer/Cplasma) Mouse plasma 1” value?
A: 24.7%

Q: What about the “% unbound (Cbuffer/Cplasma) Mouse plasma 2” value of the same compound?
A: 22.2%

Q: What about the “% unbound (Cbuffer/Cplasma) Mouse plasma 3” value of the same compound?
A: 18.8%

Q: What about the “% unbound (Cbuffer/Cplasma) Mouse plasma Average” value of the same compound?
A: 21.9%

Q: What about the “% unbound (Cbuffer/Cplasma) Rat plasma 1” value [1] of the same compound?
A: 15.8%

Q: And the “% unbound (Cbuffer/Cplasma) Rat plasma 2” value [1]?
A: 20.1%

Q: And the “% unbound (Cbuffer/Cplasma) Rat plasma 3” value [1]?
A: 21.7%

Q: And the “% unbound (Cbuffer/Cplasma) Rat plasma Average” value [1]?
A: 19.2%

Q: What about the CLs ([5]; male, CD-1, mouse, iv, 5 mg/kg) of the same compound?
A: 114.8 mL/min/kg

Q: And the calculated oral bioavailability ([5]; mouse)?
A: ~1%

Q: What about the terminal half-life ([5]; mouse) of the same compound?
A: ~2 h

Q: And the tmax ([5]; mouse, po, 40 mg/kg)?
A: 5 min

Q: What about the “% recovery” value [2] of the same compound?
A: 89%

Q: What about the “Control buffer/Buffer” value [3] of the same compound?
A: 94%
